The assay addresses T1, CDK2 (Homo sapiens, UniProt P24941).
T1 construct: endogenous in cells; host or cells: OVCAR3 cells
Briefly: Phospho-RB measurement in OVCAR3 cells (HTRF phospho-RB cellular kit). Format: cell-based. The following applies: inhibition of RB phosphorylation at S807/811 (HTRF, TR-FRET ratio 665/620), 24 h compound treatment, 0.3 to 10,000 nM. A digest of the protocol: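 IC50 came from a four-parameter logistic fit of the DMSO-normalized TR-FRET ratio (665/620 nm). That ratio reflects RB phosphorylation at S807/811, read with an HTRF antibody pair 4 h after adding lysate at room temperature.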
Background: Time-resolved FRET reads energy transfer from a long-lived donor to a nearby acceptor.
What is called IC50 is the concentration at which inhibition is half-maximal. On to `COc1cccc2c1CN(S(=O)(=O)Nc1cccc(-c3nc(C(C)(C)C)sc3-c3ccnc(N[C@H]4[C@@H]5CS(=O)(=O)C[C@@H]54)n3)c1F)C2` [Example 221, N-(3-(2-(tert-butyl)-5-(2-(((1R,5S,6r)-3,3-dioxido-3-thiabicyclo [3.1.0]hexan-6-yl)amino)pyrimidin-4-yl)thiazol-4-yl)-2-fluorophenyl)-4-methoxyisoindoline-2-sulfonamide], for which the IC50 was 35.5 nM.

As for `CC(C)(C)c1nc(-c2cccc(NS(=O)(=O)N3CCC4(CCCC4)C3)c2F)c(-c2ccnc(NC3CCN(S(=O)(=O)N4CCNCC4)CC3)n2)s1` [Example 176, N-(3-(2-(tert-butyl)-5-(2-((1-(piperazin-1-ylsulfonyl)piperidin-4-yl)amino)-pyrimidin-4-yl)thiazol-4-yl)-2-fluoro-phenyl)-2-azaspiro[4.4] nonane-2-sulfonamide], the IC50 amounted to 1920 nM.

In the case of `O=S1(=O)CC2(CC(Nc3nccc(-c4sc(C56CC(C5)C6)nc4-c4cccc(NS(=O)(=O)N5CC6CCC(CC6)C5)c4F)n3)C2)C1` [Example 270, (1s,5s)-N-(3-(2-(bicyclo[1.1.1]pentan-1-yl)-5-(2-((2,2-dioxido-2-thiaspiro[3.3]-heptan-6-yl)-amino)pyrimidin-4-yl)thiazol-4-yl)-2-fluorophenyl)-3-azabicyclo[3.2.2] nonane-3-sulfonamide], the half-inhibitory concentration (IC50) is 3430 nM.

Take `CC(C)(C)c1nc(-c2cccc(NS(=O)(=O)N3Cc4cccc(Oc5ccccc5)c4C3)c2F)c(-c2ccnc(NC3CCN(S(C)(=O)=O)CC3)n2)s1` [Example 211, N-(3-(2-(tert-butyl)-5-(2-((1-(methylsulfonyl)-piperidin-4-yl)amino)-pyrimidin-4-yl)thiazol-4-yl)-2-fluoro-phenyl)-4-phenoxyisoindoline-2-sulfonamide]: the IC50 came to 613 nM.

For `CNC(=O)c1cccc2c1CN(S(=O)(=O)Nc1cccc(-c3nc(C(C)(C)C)sc3-c3ccnc(NC4CCN(S(C)(=O)=O)CC4)n3)c1F)C2` [Example 145, 2-(N-(3-(2-(tert-butyl)-5-(2-((1-(methyl-sulfonyl)piperidin-4-yl)amino)pyrimidin-4-yl)thiazol-4-yl)-2-fluorophenyl)-sulfamoyl)-N-methyliso-indoline-4-carboxamide], the IC50 was found to be 389 nM.

Consider `CN1CCN(S(=O)(=O)Nc2cccc(-c3nc(C45CC(C4)C5)sc3-c3ccnc(NC4CC5(C4)CS(=O)(=O)C5)n3)c2F)Cc2ccccc21` [Example 275, N-(3-(2-(bicyclo [1.1.1]pentan-1-yl)-5-(2-((2,2-dioxido-2-thiaspiro[3.3]heptan-6-yl)amino)-pyrimidin-4-yl)thiazol-4-yl)-2-fluorophenyl)-1-methyl-1,2,3,5-tetrahydro-4H-benzo[e][1,4]-diazepine-4-sulfonamide], for which the 50% inhibitory concentration (IC50) was found to be 339 nM.

Take `CS(=O)(=O)CC12CC(Nc3nccc(-c4sc(C56CC(C5)C6)nc4-c4cccc(NS(=O)(=O)N5CCc6ccc(Cl)cc65)c4F)n3)(C1)C2` [Example 269, N-(3-(2-(bicyclo [1.1.1]pentan-1-yl)-5-(2-((3-((methylsulfonyl)methyl)bicyclo-[1.1.1]pentan-1-yl)amino)pyrimidin-4-yl)thiazol-4-yl)-2-fluorophenyl)-6-chloroindoline-1-sulfonamide]: the half-maximal inhibitory concentration (IC50) was found to be 70.6 nM.

In the case of `COc1cccc2c1CN(S(=O)(=O)Nc1cccc(-c3nc(C4(C)CCOCC4)sc3-c3ccnc(NC4CC5(C4)CS(=O)(=O)C5)n3)c1F)C2` [Example 2, N-(3-(5-(2-((2,2-dioxido-2-thiaspiro-[3.3]-heptan-6-yl)amino)pyrimidin-4-yl)-2-(4-methyltetrahydro-2H-pyran-4-yl)-thiazol-4-yl)-2-fluorophenyl)-4-methoxyisoindoline-2-sulfonamide], the IC50 came out at 75.5 nM.

Consider `COc1cccc2c1CN(S(=O)(=O)Nc1cccc(-c3nc(C(C)(C)C)sc3-c3ccnc(NC4CCN(S(C)(=O)=O)CC4)n3)c1F)C2` [Example 78, N-(3-(2-(tert-butyl)-5-(2-((1-(methylsulfonyl)-piperidin-4-yl)amino)-pyrimidin-4-yl)thiazol-4-yl)-2-fluoro-phenyl)-4-methoxyisoindoline-2-sulfonamide], for which the concentration for half-maximal inhibition (IC50) stood at 65.6 nM.

On to `CC(C)(C)c1nc(-c2cccc(NS(=O)(=O)N3CCC(Oc4ccccc4)CC3)c2F)c(-c2ccnc(NC3CCN(S(C)(=O)=O)CC3)n2)s1` [Example 65, N-(3-(2-(tert-butyl)-5-(2-((1-(methylsulfonyl)-piperidin-4-yl)amino)-pyrimidin-4-yl)thiazol-4-yl)-2-fluoro-phenyl)-4-phenoxypiperidine-1-sulfonamide], for which the IC50 is 588 nM.

Regarding `CC(C)(C)c1nc(-c2cccc(NS(=O)(=O)N3Cc4ccccc4C3)c2F)c(-c2ccnc(NC3CCN(S(N)(=O)=O)CC3)n2)s1` [Example 76, N-(3-(2-(tert-butyl)-5-(2-((1-sulfamoyl-piperidin-4-yl)amino)pyrimidin-4-yl)thiazol-4-yl)-2-fluorophenyl)-isoindoline-2-sulfonamide], the IC50 is 65 nM.

Take `CC(C)(C)c1nc(-c2cccc(NS(=O)(=O)N3Cc4ccccc4C3c3ccccc3)c2F)c(-c2ccnc(NC3CC4(C3)CS(=O)(=O)C4)n2)s1` (stereo not drawn) [Example 208, N-(3-(2-(tert-butyl)-5-(2-((2,2-dioxido-2-thiaspiro[3.3]heptan-6-yl)amino)-pyrimidin-4-yl)thiazol-4-yl)-2-fluoro-phenyl)-1-phenylisoindoline-2-sulfonamide]: the IC50 was 3690 nM.

Turning to `CC(C)(C)c1nc(-c2cccc(NS(=O)(=O)N3Cc4cccc(Oc5ccc(F)cc5)c4C3)c2F)c(-c2ccnc(NC3CC4(C3)CS(=O)(=O)C4)n2)s1` [Example 215, N-(3-(2-(tert-butyl)-5-(2-((2,2-dioxido-2-thiaspiro[3.3]heptan-6-yl)amino)-pyrimidin-4-yl)thiazol-4-yl)-2-fluoro-phenyl)-4-(4-fluoro-phenoxy)-isoindoline-2-sulfonamide], the half-maximal inhibitory concentration (IC50) came out at 601 nM.

As to `CN1CC2CCC(C1)N2c1nc(-c2cccc(NS(=O)(=O)N3CCc4ccc(C(F)(F)F)cc43)c2F)c(-c2ccnc(N[C@H]3CC[C@H](S(C)(=O)=O)CC3)n2)s1` [Example 294, N-(2-fluoro-3-(2-(3-methyl-3,8-diazabicyclo[3.2.1]octan-8-yl)-5-(2-(((1r,4r)-4-(methylsulfonyl)cyclohexyl)-amino)pyrimidin-4-yl)thiazol-4-yl)phenyl)-6-(trifluoromethyl) indoline-1-sulfonamide], the half-maximal inhibitory concentration (IC50) worked out at 42.9 nM.

With `CC(C)(C)c1nc(-c2cccc(NS(=O)(=O)N3CCn4c(nnc4C(F)(F)F)C3)c2F)c(-c2ccnc(NC3CCN(S(C)(=O)=O)CC3)n2)s1` [Example 94, N-(3-(2-(tert-butyl)-5-(2-((1-(methylsulfonyl)-piperidin-4-yl)amino)-pyrimidin-4-yl)thiazol-4-yl)-2-fluoro-phenyl)-3-(trifluoromethyl)-5,6-dihydro-[1,2,4]triazolo [4,3-a]pyrazine-7(8H)-sulfonamide], the IC50 came to 5940 nM.

For `CC(C)(C)c1nc(-c2cccc(NS(=O)(=O)N3CCc4ncccc43)c2F)c(-c2ccnc(NC3CCN(S(C)(=O)=O)CC3)n2)s1` [Example 141, N-(3-(2-(tert-butyl)-5-(2-((1-(methylsulfonyl)-piperidin-4-yl)amino)-pyrimidin-4-yl)thiazol-4-yl)-2-fluoro-phenyl)-2,3-dihydro-1H-pyrrolo [3,2-b]-pyridine-1-sulfonamide], the concentration for half-maximal inhibition (IC50) worked out at 291 nM.

Turning to `CC1c2ccccc2CN1S(=O)(=O)Nc1cccc(-c2nc(C(C)(C)C)sc2-c2ccnc(NC3CCN(S(=O)(=O)N4CCNCC4)CC3)n2)c1F` (stereo not drawn) [Example 148, N-(3-(2-(tert-butyl)-5-(2-((1-(piperazin-1-ylsulfonyl)piperidin-4-yl)amino)-pyrimidin-4-yl)thiazol-4-yl)-2-fluoro-phenyl)-1-methylisoindoline-2-sulfonamide], the IC50 was 210 nM.

Regarding `CC(C)(C)c1nc(-c2cccc(NS(=O)(=O)N3Cc4cccc(OCCN)c4C3)c2F)c(-c2ccnc(NC3CCN(S(C)(=O)=O)CC3)n2)s1` [Example 244, 4-(2-aminoethoxy)-N-(3-(2-(tert-butyl)-5-(2-((1-(methylsulfonyl)piperidin-4-yl)amino)-pyrimidin-4-yl)thiazol-4-yl)-2-fluorophenyl)-isoindoline-2-sulfonamide], the half-maximal inhibitory concentration (IC50) was 1450 nM.

Regarding `CC(C)(C)c1nc(-c2cccc(NS(=O)(=O)N3CCOc4ccccc43)c2F)c(-c2ccnc(NC3CCN(S(C)(=O)=O)CC3)n2)s1` [Example 98, N-(3-(2-(tert-butyl)-5-(2-((1-(methylsulfonyl)piperidin-4-yl)amino)-pyrimidin-4-yl)thiazol-4-yl)-2-fluoro-phenyl)-2,3-dihydro-4H-benzo[b][1,4]-oxazine-4-sulfonamide], the half-inhibitory concentration (IC50) stood at 511 nM.

In the case of `CC(C)(C)c1nc(-c2cccc(NS(=O)(=O)N3Cc4ccc(CC#N)cc4C3)c2F)c(-c2ccnc(NC3CC4(C3)CS(=O)(=O)C4)n2)s1` [Example 246, N-(3-(2-(tert-butyl)-5-(2-((2,2-dioxido-2-thiaspiro[3.3]heptan-6-yl)amino)-pyrimidin-4-yl)thiazol-4-yl)-2-fluoro-phenyl)-5-(cyanomethyl)-isoindoline-2-sulfonamide], the half-maximal inhibitory concentration (IC50) was 334 nM.

As to `O=S1(=O)CC2(CC(Nc3nccc(-c4sc(C56CC(C5)C6)nc4-c4cccc(NS(=O)(=O)N5Cc6cccc(C(F)(F)F)c6C5)c4F)n3)C2)C1` [Example 25, N-(3-(2-(bicyclo [1.1.1]pentan-1-yl)-5-(2-((2,2-dioxido-2-thiaspiro[3.3]heptan-6-yl)amino)-pyrimidin-4-yl)thiazol-4-yl)-2-fluorophenyl)-4-(trifluoromethyl)-isoindoline-2-sulfonamide], the IC50 stood at 75.1 nM.

Values taken from US20260274833A1 (NiKang Therapeutics, Inc., priority 2022, published 2026).
